Results as given in PubChem BioAssay AID1189 (EPA DSSTox, 2008).
Activity calls are given as the source filed them.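 How the source made its calls: active means a tumor-causing dose value with its tumor site reported for any sex and species group of a rodent or other animal cancer study; inconclusive means only studies judged inadequate by the national testing program; inactive means tested in at least one study, none positive.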

experiment: DSSTox (CPDBAS) Carcinogenic Potency Database Summary SingleCellCall Results; details: animal chronic carcinogenicity bioassays, CPDB summary call
In short: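 Literature-derived summary: each substance receives an overall carcinogenic/non-carcinogenic category drawn from long-term bioassays in rats, mice, hamsters, dogs or primates, using the most positive sex-species experiment and minimal evidence criteria.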

Structure (SMILES)	outcome
OC[C@@H](O)[C@H]1O[C@@H]2O[C@H](C(Cl)(Cl)Cl)O[C@@H]2[C@H]1O	inactive
O=NN1CCCCC1C(=O)O (stereo not given)	inactive
[N-]=[N+]=O	inactive
O=S1(=O)OCCO1	inactive
CN(C)CNc1nnc(/C=C/c2ccc([N+](=O)[O-])o2)o1	active
CC1=C[C@H]2O[C@@H]3[C@H](O)C[C@@](C)(C34CO4)[C@@]2(CO)[C@H](O)C1=O (stereo not given in full)	inactive; active
Cc1c(-c2cnccn2)ssc1=S	inactive; active
FC(F)(F)C(Cl)Cl	active
C=C(C)C#N	inactive
[O-]/[N+](=N\O)c1ccccc1	active; inactive
Cc1ccc(S(=O)(=O)NC(=O)NN2CCCCCC2)cc1	inactive
C=CCOC(=O)c1ccccc1C(=O)OCC=C	inactive
CN(C)C(=S)[S][Pb][S]C(=S)N(C)C	inactive
O=C1c2ccccc2C(=O)N1SC(Cl)(Cl)Cl	active
C=C1CC[C@H](O)C/C1=C/C=C1\CCC[C@]2(C)[C@@H]([C@H](C)/C=C/[C@H](C)C(C)C)CC[C@@H]12	inactive
Clc1ccc(-c2cccc(Cl)c2Cl)c(Cl)c1	active
O=NN(c1ccccc1)c1ccccc1	active; inactive
CN(N=O)C(=O)c1ccccc1C(=O)N(C)N=O	inactive
CC(=O)C(N=Nc1ccc(Cl)cc1Cl)C(=O)Nc1ccc(-c2ccc(NC(=O)C(N=Nc3ccc(Cl)cc3Cl)C(C)=O)c(C)c2)cc1C (stereo not given)	inactive
CN1C(=O)C(O)N=C(c2ccccc2)c2cc(Cl)ccc21 (stereo not given)	inactive
C=CC(=O)OCC	active
COc1cc(-c2ccc(N=Nc3c(S(=O)(=O)O)cc4cc(S(=O)(=O)O)cc(N)c4c3O)c(OC)c2)ccc1N=Nc1c(S(=O)(=O)O)cc2cc(S(=O)(=O)O)cc(N)c2c1O	active
O[C@H]([C@H](O)[C@@H](O)CBr)[C@H](O)CBr	active; inactive

Structure (SMILES)	outcome
O=CC1CO1 (stereo not given)	inactive
OCCN(CCO)CCO	active; inactive
COC(C)(C)C	active
C=CBr	active
Cc1cc(O)cc(C)c1N(C)C	inactive; active
COc1ccc2nc(S(=O)Cc3ncc(C)c(OC)c3C)[nH]c2c1 (stereo not given)	active
CCNc1nc(Cl)nc(NC(C)(C)C#N)n1	active
C/C=N/O	inactive
CCOC(=O)N(C)N=O	active
CCN=c1cc2oc3cc(NCC)c(C)cc3c(-c3ccccc3C(=O)OCC)c-2cc1C	inactive; active
COc1nn(CSP(=S)(OC)OC)c(=O)s1	active
O=C(C1CCCCC1)N1CC(=O)N2CCc3ccccc3C2C1 (stereo not given)	inactive
CCCCCCCCCCCCC(=O)COC1=C(O)C(=O)O[C@@H]1[C@@H](O)CO	inactive
Oc1c(Cl)cc(Cl)c(Cl)c1Cc1c(O)c(Cl)cc(Cl)c1Cl	inactive
CN(C)C(=S)SC(=S)N(C)C	inactive
O=NN1CCCC1	active; inactive
Nc1ccc(Sc2ccc(N)cc2)cc1	active
NNC(=O)c1cccnc1	active
c1ccc(C2CO2)cc1 (stereo not given)	active
CC(=O)Nc1nnc(-c2ccc([N+](=O)[O-])o2)s1	active
Oc1cccc2cccnc12	inactive
C1CCNCC1	inactive; active
Nc1ccccc1N	active; inactive

Structure (SMILES)	outcome
O=[N+]([O-])c1ccc(-c2nc(N3CCOCC3)c3ccccc3n2)s1	active
CCC1(c2ccccc2)C(=O)N=C(O)NC1=O (stereo not given)	active
O=C1Nc2ccc(Cl)cc2C(c2ccccc2)=NC1O (stereo not given)	active
COc1ccc(O)c(C(C)(C)C)c1	active; inactive
ClCOCC(COCCl)OCCl	active
NC(N)=O	inactive
NCCS(=O)(=O)O	inactive; active
[O]=[Cr][O][Cr]=[O]	inactive
CCOC(=O)CC(SP(=O)(OC)OC)C(=O)OCC (stereo not given)	inactive
CN(N=O)C(N)=O	active; inactive
CC(C)NCC(O)c1ccc(NS(C)(=O)=O)cc1 (stereo not given)	inactive
CC[C@H](C)C(=O)O[C@H]1C[C@@H](C)C=C2C=C[C@H](C)[C@H](CC[C@@H]3C[C@@H](O)CC(=O)O3)[C@H]21	active; inactive
Nc1cc(S(=O)(=O)[O-])cc2cc(S(=O)(=O)[O-])c(N=Nc3ccc(-c4ccc(N=Nc5c(S(=O)(=O)[O-])cc6cc(S(=O)(=O)[O-])cc(N)c6c5O)c(O)c4)cc3O)c(O)c12.[Cu].[Cu].[Na+].[Na+].[Na+].[Na+]	active; inactive
O=c1oc2c(O)c(O)cc3c(=O)oc4c(O)c(O)cc1c4c23	inactive
OCc1ccco1	active
CC[N+]([O-])=NC	active
O=NN1CCCCO1	active
c1ccc2[nH]c(-c3cscn3)nc2c1	inactive
CCOP(=S)(OCC)SC1OCCOC1SP(=S)(OCC)OCC (stereo not given)	inactive
CC(O)CN(CC(O)CO)N=O (stereo not given)	active
C=CC(=O)NCO	active; inactive
Cc1csc(NNC=O)n1	active
O=NN1CC=CCC1	active

Structure (SMILES)	outcome
CN(C)C(=S)S[Se](SC(=S)N(C)C)(SC(=S)N(C)C)SC(=S)N(C)C	inactive
c1ccc(NNc2ccccc2)cc1	active
Clc1ccccc1Cl	inactive
CN1CCCC1=O	active
CC(C(O)c1ccccc1)N(C)N=O (stereo not given)	active
CCN=[N+](C)[O-]	active
CC(CCl)OC(C)CCl (stereo not given)	active
CC1CN(/N=C/c2ccc([N+](=O)[O-])o2)C(=O)N1 (stereo not given)	active
Cc1cc(N)ccc1N	inactive
COc1cc(O)c2c(=O)c3c(OC)cc4c(c3oc2c1OC)C1C=COC1O4 (stereo not given)	active
CC(Cc1ccccc1)NN (stereo not given)	inactive
CC1=CC(=O)CC(C)(C)C1	active
CC(=O)CN(C)N=O	active
CN(CCCC(O)c1cccnc1)N=O (stereo not given)	active
CCN(Cc1cccc(S(=O)(=O)[O-])c1)c1ccc(C(=C2C=CC(=[N+](C)C)C=C2)c2ccc(N(CC)Cc3cccc(S(=O)(=O)O)c3)cc2)cc1	active
O=NN1CC(=O)NC1=O	active
Nc1ccc(Oc2ccc(Cl)cc2)cc1	active
C=Cc1cccc[n+]1[O-]	inactive
CCCC(CCC)C(=O)O	active
CC(N)=O	active; inactive
CNCc1ccc(CSCCNC(=NCC(O)c2ccc(O)cc2)NS(C)(=O)=O)o1 (stereo not given)	active; inactive
CC(=O)Nc1ccc(-c2ccccc2)cc1O	inactive; active
CCN(C=O)CC	inactive; active

Structure (SMILES)	outcome
ClCOCCCCOCCl	inactive
CCCCNNCCCC	active; inactive
O	inactive
Cc1ncc[nH]1	active
CC(O)CCl (stereo not given)	inactive; active
Cc1ccc2ccccc2c1	inactive; active
CC1=C[C@H]2O[C@@H]3[C@H](O)[C@@H](O)[C@@](C)(C34CO4)[C@@]2(CO)[C@H](O)C1=O (stereo not given in full)	inactive; active
COc1cc2c(c3oc4cccc(O)c4c(=O)c13)C1C=COC1O2 (stereo not given)	active; inactive
CCN(CC)C(=O)Nc1ccc(OCC(O)CNC(C)(C)C)c(C(C)=O)c1 (stereo not given)	inactive; active
COc1cc(OC)c2c3c(c(=O)oc2c1)C(=O)CC3	inactive; active
CN(C)CCO	inactive; active
C[N+](C)(C)CCCl	inactive
CN(C)NC(=O)CCC(=O)O	active
O=C(O)c1[nH]n(-c2ccc(S(=O)(=O)O)cc2)c(=O)c1N=Nc1ccc(S(=O)(=O)O)cc1	inactive
Cc1ccc([N+](=O)[O-])cc1N	active
CCOc1ccc(NC(C)=O)cc1[N+](=O)[O-]	active
Clc1ccc(Cl)cc1	active
Nc1ccc(-c2ccccc2)cc1	active
Clc1cccc(-c2cccc(Cl)c2)c1	active
Nc1c(Cl)cc(Cl)cc1Cl	active
O=NN1CCSCC1	active
COC(=O)c1ccc(C(=O)OC)cc1	inactive; active
O=[N+]([O-])c1ccc(-c2cscn2)o1	active

Structure (SMILES)	outcome
CCC[N+](=O)[O-]	inactive
Nc1ccc2c(c1)C(=O)c1ccccc1C2=O	active
CC1CO1 (stereo not given)	active
Cc1cc(O)c2c(c1O)C(=O)C13C(=C2O)C(=O)C2C(O)C1C1C(O)C3C(=O)C3=C(O)c4c(O)cc(C)c(O)c4C(=O)C321 (stereo not given)	active
Cc1cccc(N=Nc2ccc(N(C)C)cc2)c1	active
O[C@@H]([C@H](O)[C@@H](O)CBr)[C@@H](O)CBr	active
CCOP(=S)(OCC)Oc1ccc2c(C)c(Cl)c(=O)oc2c1	inactive
O=c1[nH]nc(-c2ccc([N+](=O)[O-])o2)o1	active; inactive
Nc1cc([N+](=O)[O-])ccc1C(=O)O	inactive
COc1cccc(O)c1O	active
O=NN1CCC(O)C1 (stereo not given)	active
COC(C(=O)O)c1ccccc1 (stereo not given)	inactive; active
C=CCN(CC=C)N=O	active
Cl[C@H]1OCCO[C@@H]1Cl	inactive
CNC[C@H](O)c1cccc(O)c1	inactive
O=C1c2cccc(O)c2C(=O)c2c(O)cccc21	active
COc1ccc(C)cc1N	active
O=C(O)C(Cl)(Cl)Cl	active
CCCc1ccc2c(c1)OCO2	active; inactive
C[C@H]1C(=O)O[C@@H]2CCN3CC=C(COC(=O)[C@](C)(O)[C@]1(C)O)[C@H]23	active
